Experimental data from patent US20250250264A1, “KIF18A INHIBITOR AND USE THEREOF” (Wuhan Humanwell Innovative Drug Research and Development …, priority 2022, published 2025).

Assays:
[1] = target: recombinant protein KIF18A (kinesin domain: aa 1-467) (Homo sapiens (Human), UniProt Q8NI77); test: Assay on inhibition of KIF18A enzymatic activity (ADP-Glo); format: biochemical; conditions: KIF18A 80 nM, ATP 80 μM, 3 h at room temperature, ADP-Glo luminescence; read-out: IC50 (μM), inhibitory effects of compounds on KIF18A enzymatic activity
Text: The recombinant protein KIF18A (kinesin domain: aa 1-467) used in this assay was expressed by the Bac-to-Bac baculovirus expression system from Invitrogen, and the resulting protein was purified for use in this assay (Seki, M. et al. 2003 Nucleic Acids Res.). Quantitative detection of KIF18A enzymatic activity was completed using an ADP-Glo™ kinase assay kit (Promega Inc). Related procedures strictly followed the product instructions, which are briefly described as follows:
The reaction system consisted of a test compound, the recombinant protein KIF18A (aa 1-467), ATP (Promega Inc), and an assay buffer. The test compound was prepared into a 0.5 mM stock solution using DMSO (Sigma Inc) and then serially diluted in DMSO. The assay buffer consisted of an aqueous solution of 15 mM Tris, 10 mM MgCl2 (Sigma Inc), 0.01% Pluronic F-68 (Life Technologies Inc), 1 μM paclitaxel (Cytoskeleton Inc), 30 μg/mL porcine tubulin (Cytoskeleton Inc), and 2% DMSO. The KIF18A protein (final concentration: 80 nM) and the compound at different concentrations (1 μL) were added to the prepared assay buffer (50 μL), and the mixture was incubated at room temperature for 15 min. Then, ATP (final concentration: 80 μM) was added to the reaction mixture, and the resulting mixture was incubated at room temperature for 3 h. After the reaction was completed, 5 μL of the ADP-Glo™ reagent and 2.5 μL of the reaction mixture were added to a 384-well plate (Grenier Inc). The resulting mixture was mixed homogeneously, then sealed by an aluminum foil sealing film, and incubated at room temperature in the dark for 40 min. Finally, 10 μL of the […] was added to each reaction well, and the mixture was incubated at room temperature in the dark for 40 min. After all reactions were completed, the luminescence values of the wells were read on a microplate reader (Molecular Device_SpectraMax Id5), and the inhibition ratios were calculated. The calculation formula for the inhibition rates was as follows: inhibition rate=(1−(compound group−blank group)/(negative control group−blank group))×100%. Then, based on the inhibition rates at different compound concentrations, the IC50 value of the test compound was calculated using the GraphPad Prism 8 software.

NIH:OVCAR-3 cells = test: Assay on inhibition of OVCAR3 tumor cell proliferation (CellTiter-Glo); format: cell-based; conditions: Homo sapiens, OVCAR-3, 72 h, 3 days of drug treatment, read-out: IC50 (μM), inhibitory effects of compounds on tumor cell proliferation
Method: NIH:OVCAR-3 cells (ATCC, Cat No. HTB-161, purchased from Co-Bier) were seeded into a T75 culture flask and cultured in an RPMI 1640 medium containing 20% FBS for 3 days in preparation for subsequent culturing and seeding into a 96-well plate for the cell proliferation assay.
The OVCAR3 cells were seeded at a density of 3000 cells/100 μL/well into the 96-well cell plate, and then the plate was incubated in an incubator (37° C., 5% CO2) for 18 h. On the second day, drug treatment was started. Serially diluted test compound solutions (each drug starting at a concentration of 10 μM, diluted in DMSO, with a dilution ratio of 1:3, and nine gradient points for each drug) or DMSO (negative control) was added to the medium in the plate at 100 μL/well, and a blank group was set up with only medium, but no seeded cell strains. After the drug addition, the plate was incubated in the incubator for another 3 days (37° C., 5% CO2). On the fourth day, plate detection was performed. To each well, 100 μL of CellTiter-Glo reagent (Promega G9243) was added. The plate was shaken for 5 min and then left to stand at room temperature for 5 min. The chemical luminescence signal value of each well was determined using a microplate reader (PerkinElmer EnVision®2104). Cell proliferation inhibition rate=(1−(compound group−blank group)/(DMSO group−blank group))×100%. Then, the IC50 value of each compound was calculated using the GraphPad Prism 8 software.

recombinant protein KIF18A (kinesin domain: aa 1-467), sequence (Q8NI77 1-467): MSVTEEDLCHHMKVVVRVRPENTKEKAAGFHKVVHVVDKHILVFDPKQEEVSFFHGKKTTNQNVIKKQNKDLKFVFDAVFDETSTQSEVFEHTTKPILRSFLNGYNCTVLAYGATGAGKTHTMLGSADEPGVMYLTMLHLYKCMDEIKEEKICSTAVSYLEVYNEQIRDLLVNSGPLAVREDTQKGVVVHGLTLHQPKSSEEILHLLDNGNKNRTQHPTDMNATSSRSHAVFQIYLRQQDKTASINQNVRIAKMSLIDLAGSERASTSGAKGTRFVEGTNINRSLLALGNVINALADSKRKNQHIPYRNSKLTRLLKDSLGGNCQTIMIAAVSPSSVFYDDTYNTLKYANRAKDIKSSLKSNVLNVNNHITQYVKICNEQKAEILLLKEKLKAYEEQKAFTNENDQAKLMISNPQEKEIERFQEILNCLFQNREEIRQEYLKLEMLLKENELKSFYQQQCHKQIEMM
recombinant protein KIF18A (kinesin domain: aa 1-467), sequence (P02550 whole entry partner, the tested form may be a part): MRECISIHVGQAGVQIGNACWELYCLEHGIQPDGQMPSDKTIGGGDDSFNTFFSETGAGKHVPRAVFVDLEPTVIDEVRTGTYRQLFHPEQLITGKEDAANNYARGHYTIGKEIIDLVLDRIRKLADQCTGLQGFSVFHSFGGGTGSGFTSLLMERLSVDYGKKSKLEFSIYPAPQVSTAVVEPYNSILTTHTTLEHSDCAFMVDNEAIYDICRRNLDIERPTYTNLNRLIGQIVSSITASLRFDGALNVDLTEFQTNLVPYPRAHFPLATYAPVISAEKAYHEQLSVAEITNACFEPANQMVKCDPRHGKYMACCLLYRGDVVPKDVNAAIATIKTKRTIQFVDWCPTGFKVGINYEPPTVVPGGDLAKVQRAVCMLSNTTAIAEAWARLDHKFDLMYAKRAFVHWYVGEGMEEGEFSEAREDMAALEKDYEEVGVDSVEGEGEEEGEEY
recombinant protein KIF18A (kinesin domain: aa 1-467), sequence (P02554 whole entry partner, the tested form may be a part): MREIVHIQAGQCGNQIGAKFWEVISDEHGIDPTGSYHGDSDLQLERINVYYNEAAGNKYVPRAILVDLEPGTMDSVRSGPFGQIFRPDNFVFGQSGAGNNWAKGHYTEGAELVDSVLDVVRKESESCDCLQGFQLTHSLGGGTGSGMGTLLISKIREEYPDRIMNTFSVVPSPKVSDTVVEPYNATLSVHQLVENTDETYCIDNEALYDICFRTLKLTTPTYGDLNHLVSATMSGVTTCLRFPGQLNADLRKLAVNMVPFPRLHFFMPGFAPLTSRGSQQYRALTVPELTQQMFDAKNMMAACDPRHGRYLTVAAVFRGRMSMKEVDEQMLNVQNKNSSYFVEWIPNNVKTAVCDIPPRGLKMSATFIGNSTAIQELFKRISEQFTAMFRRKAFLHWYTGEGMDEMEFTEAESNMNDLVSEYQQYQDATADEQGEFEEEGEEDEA

Row | IC50 [1] [µM] | IC50 (NIH:OVCAR-3 cells) [µM] | SMILES
1 | 0.007 | 0.051 | Cc1cc(-c2cnn(-c3ccc(NS(=O)(=O)CCO)cc3N3CCC4(CC3)CC4)c2)nc(N2CC3C(C2)C3(F)F)n1 (stereo not drawn) [Example I-113, N-(4-(4-(2-(6,6-Difluoro-3-azabicyclo[3.1.0]hexan-3-yl)-6-methylpyrimidin-4-yl)-1H-pyrazol-1-yl)-3-(6-azaspiro[2.5]octan-6-yl)phenyl)-2-hydroxyethane-1-sulfonamide]
2 | 0.002 | 0.107 | Cc1cc(-c2cnn(-c3ccc(NS(=O)(=O)[C@@H](C)CO)cc3N3CCC4(CC3)CC4)c2)nc(N2CCC(F)(F)CC2)n1 [Example I-112, (S)—N-(4-(4-(2-(4,4-Difluoropiperidin-1-yl)-6-methylpyrimidin-4-yl)-1H-pyrazol-1-yl)-3-(6-azaspiro[2.5]octan-6-yl)phenyl)-1-hydroxypropane-2-sulfonamide]
3 | 0.009 | 0.148 | O=S(=O)(CCO)Nc1ccc(-n2cc(-c3nc(N4CCC(F)(F)CC4)ncc3F)cn2)c(N2CCC3(CC2)CC3)c1 [Example I-129, N-(4-(4-(2-(4,4-Difluoropiperidin-1-yl)-5-fluoropyrimidin-4-yl)-1H-pyrazol-1-yl)-3-(6-azaspiro[2.5]octan-6-yl)phenyl)-2-hydroxyethane-1-sulfonamide]
4 | 0.009 | 0.365 | Cc1cc(-c2cnn(-c3ccc(NS(=O)(=O)CCO)cc3N3CCC(C)(F)CC3)c2)nc(N2CCC(F)(F)CC2)n1 [Example I-117, N-(4-(4-(2-(4,4-Difluoropiperidin-1-yl)-6-methylpyrimidin-4-yl)-1H-pyrazol-1-yl)-3-(4-fluoro-4-methylpiperidin-1-yl)phenyl)-2-hydroxyethane-1-sulfonamide]
5 | 0.007 | 0.076 | Cc1cc(-c2cnn(-c3ccc(NS(=O)(=O)CCO)cc3N3CCC4(CC3)CC4)c2)nc(N2CCC(F)CC2)n1 [Example I-114, N-(4-(4-(2-(4-Fluoropiperidin-1-yl)-6-methylpyrimidin-4-yl)-1H-pyrazol-1-yl)-3-(6-azaspiro[2.5]octan-6-yl)phenyl)-2-hydroxyethane-1-sulfonamide]
6 | 0.009 | 0.142 | O=S(=O)(CCO)Nc1ccc(-n2cc(-c3ncnc(N4CCC(F)(F)CC4)n3)cn2)c(N2CCC3(CC2)CC3)c1 [Example I-130, N-(4-(4-(4-(4,4-Difluoropiperidin-1-yl)-1,3,5-triazin-2-yl)-1H-pyrazol-1-yl)-3-(6-azaspiro [2.5]octan-6-yl)phenyl)-2-hydroxyethanesulfonamide]

Second part, the compound before the results:

Row | SMILES | IC50 [1] [µM] | IC50 (NIH:OVCAR-3 cells) [µM]
7 | Cc1cc(-c2nnc(-c3ccc(NS(=O)(=O)CCO)cc3N3CCC4(CC3)CC4)o2)nc(N2CCC(F)CC2)n1 [Example I-8, N-(4-(5-(2-(4-fluoropiperidin-1-yl)-6-methylpyrimidin-4-yl)-1,3,4-oxadiazol-2-yl)-3-(6-azaspiro [2.5]octan-6-yl)phenyl)-2-hydroxyethanesulfonamide] | 0.002 | 0.035
8 | Cc1cc(-c2nnc(-c3ccc(NS(=O)(=O)CCO)cc3N3CCC4(CC3)CC4)o2)nc(N2CC3CC3C2)n1 (stereo not drawn) [Example I-86, N-(4-(5-(2-(3-azabicyclo[3.1.0]hexan-3-yl)-6-methylpyrimidin-4-yl)-1,3,4-oxadiazol-2-yl)-3-(6-azaspiro[2.5]octan-6-yl)phenyl)-2-hydroxyethane-1-sulfonamide] | 0.003 | 0.07
9 | Cc1cc(-c2nnc(-c3ccc(NS(=O)(=O)CCO)cc3N3CCC4(CC3)CC4)o2)nc(N2CC3C(C2)C3(F)F)n1 (stereo not drawn) [Example I-88, N-(4-(5-(2-(6,6-Difluoro-3-azabicyclo[3.1.0]hexan-3-yl)-6-methylpyrimidin-4-yl)-1,3,4-oxadiazol-2-yl)-3-(6-azaspiro[2.5]octan-6-yl)phenyl)-2-hydroxyethane-1-sulfonamide] | 0.001 | 0.015
10 | Cc1cc(-c2nnc(-c3ccc(NS(=O)(=O)CCO)cc3N3CCC4(CC3)CC4)o2)nc(OCCC(F)(F)F)n1 [Example I-27, 2-Hydroxy-N-(4-(5-(6-methyl-2-(3,3,3-trifluoropropoxy)pyrimidin-4-yl)-1,3,4-oxadiazol-2-yl)-3-(6-azaspiro[2.5]octan-6-yl)phenyl)ethane-1-sulfonamide] | 0.001 | 0.079
11 | Cc1cc(-c2nnc(-c3ccc(NS(=O)(=O)CCO)cc3N3CCC4(CC3)CC4)o2)cc(N2CCC(F)CC2)n1 [Example I-105, N-(4-(5-(2-(4-Fluoropiperidin-1-yl)-6-methylpyridin-4-yl)-1,3,4-oxadiazol-2-yl)-3-(6-azaspiro [2.5]octan-6-yl)phenyl)-2-hydroxyethane-sulfonamide] | 0.002 | 0.033
12 | Cc1cc(-c2nnc(-c3ccc(NS(=O)(=O)CCO)cc3N3CCC4(CC3)CC4)o2)nc(N2CCC3(CC3)C2)n1 [Example I-17, 2-Hydroxy-N-(4-(5-(6-methyl-2-(5-azaspiro[2.4]heptan-5-yl)pyrimidin-4-yl)-1,3,4-oxadiazol-2-yl)-3-(6-azaspiro[2.5]octan-6-yl)phenyl)ethane-1-sulfonamide] | 0.01 | 0.56
13 | O=S(=O)(CCO)Nc1ccc(-n2cc(-c3cc(C(F)F)nc(N4CCC(F)(F)CC4)c3)cn2)c(N2CCC3(CC2)CC3)c1 [Example I-107, N-(4-(4-(2-(Difluoromethyl)-6-(4,4-difluoropiperidin-1-yl)pyridin-4-yl)-1H-pyrazol-1-yl)-3-(6-azaspiro[2.5]octan-6-yl)phenyl)-2-hydroxyethane-1-sulfonamide] | 0.008 | 0.213
14 | Cc1cc(-c2nnc(-c3ccc(NS(=O)(=O)CCO)cc3N3CCC4(CC3)CC4)s2)nc(N2CCCC(F)(F)C2)n1 [Example I-85, N-(4-(5-(2-(3,3-Difluoropiperidin-1-yl)-6-methylpyrimidin-4-yl)-1,3,4-thiadiazol-2-yl)-3-(6-azaspiro[2.5]octan-6-yl)phenyl)-2-hydroxyethane-1-sulfonamide] | 0.022 | 0.284
15 | Cc1cc(-c2nnc(-c3ccc(NS(=O)(=O)CCO)cc3N3CCC4(CC3)CC4)o2)nc(N2CCCC(F)C2)n1 (stereo not drawn) [Example I-102, N-(4-(5-(2-(3-Fluoropiperidin-1-yl)-6-methylpyrimidin-4-yl)-1,3,4-oxadiazol-2-yl)-3-(6-azaspiro[2.5]octan-6-yl)phenyl)-2-hydroxyethane-1-sulfonamide] | 0.004 | 0.144
16 | Cc1cc(-c2nnc(-c3ccc(NS(=O)(=O)CCO)cc3N3CCC4(CC3)CC4)o2)nc(N2CCC(F)(F)CC2)c1 [Example I-87, N-(4-(5-(6-(4,4-Difluoropiperidin-1-yl)-4-methylpyridin-2-yl)-1,3,4-oxadiazol-2-yl)-3-(6-azaspiro [2.5]octan-6-yl)phenyl)-2-hydroxyethanesulfonamide] | 0.004 | 0.144
17 | Cc1cc(-c2nnc(-c3ccc(NS(=O)(=O)CCO)cc3N3CCC4(CC3)CC4)s2)nc(N2CCC(F)(F)CC2)n1 [Example I-77, N-(4-(5-(2-(4,4-Difluoropiperidin-1-yl)-6-methylpyrimidin-4-yl)-1,3,4-thiadiazol-2-yl)-3-(6-azaspiro[2.5]octan-6-yl)phenyl)-2-hydroxyethane-1-sulfonamide] | 0.002 | 0.12
18 | CCc1cc(-c2cnn(-c3ccc(NS(=O)(=O)CCO)cc3N3CCC4(CC3)CC4)c2)nc(N2CCC(F)(F)CC2)n1 [Example I-95, N-(4-(4-(2-(4,4-Difluoropiperidin-1-yl)-6-ethylpyrimidin-4-yl)-1H-pyrazol-1-yl)-3-(6-azaspiro[2.5]octan-6-yl)phenyl)-2-hydroxyethane-1-sulfonamide] | 0.002 | 0.412
